Source: patent US8747810B2, “Compositions and methods for imaging tissues, organs and tumors” (President and Fellows of Harvard College, priority 2009, dated 2014)

Columns and labels:
B16F10 melanoma tumors = assay: In vivo biodistribution of 99mTc complexes in C57B16 mice bearing B16F10 melanoma tumors; settings: for mel/blood: melanoma/blood ratio; for mel/liver: melanoma/liver ratio; for mel/lung: melanoma/lung ratio; for mel/spleen: melanoma/spleen ratio
Procedure: To study the tumor uptake of ^99mTc complexes, ^99mTc-Z2-^99mTc-Z4, in vivo biodistribution experiment at 1, 3, 6 hours post intra-venous injection of the ^99mTc-complex were carried out in C57B16 mice bearing B16F10 melanoma tumors. The biodistribution data including melanoma/nontumor (M/NT) ratios for selected organs are summarized in Table 2 as percentage injected dose per gram (% ID/g) (Table 2). […] This is due to washout from no-tumor organs and increased retention in the tumor.

B16 melanoma nodules = assay: In vivo biodistribution and tumor uptake of 99mTc complexes in C57B16 mice with B16 melanoma nodules; settings: for mel/blood: melanoma/blood ratio; for mel/liver: melanoma/liver ratio; for mel/lung: melanoma/lung ratio; for mel/spleen: melanoma/spleen ratio
Procedure: The biodistribution data including melanoma/nontumor (M/NT) ratios for selected organs, summarized in Table 1 as percentage injected dose per gram (% ID/g)
To study the tumor uptake of radiolabeled metal complexes, in vivo, biodistribution experiments at 1 h after their administration were carried out in C57B16 male mice with palpable B16 melanoma nodules.

[1] = 3 h postinjection, listed as 99mTc-Z2

## O=C1C[S][99Tc-]23(=[O])[S]CC[N+]2(CCN2CCCCC2)CC[N]13 (stereo not drawn) [Tc-Z2]
B16F10 melanoma tumors; 1 h postinjection
  Eyes: 13.57 ± 2.1 % ID/g
  blood: 0.41 ± 0.08 % ID/g
  brain: 0.13 ± 0.03 % ID/g
  heart: 0.62 ± 0.10 % ID/g
  kidney: 3.50 ± 0.95 % ID/g
  liver: 10.28 ± 2.9 % ID/g
  lung: 1.29 ± 0.36 % ID/g
  melanoma (tumor uptake): 8.52 ± 0.08 % ID/g
  muscle: 0.36 ± 0.06 % ID/g
  spleen: 0.90 ± 0.22 % ID/g
  mel/blood: 16.49 ± 6.7
  mel/liver: 0.64 ± 0.21
  mel/lung: 4.93 ± 1.13
  mel/spleen: 7.94 ± 2.79
B16F10 melanoma tumors; 1 h postinjection, listed as 99mTc-Z2
  melanoma (tumor uptake): 8.52 % ID/g
B16F10 melanoma tumors; 3 h postinjection
  Eyes: 13.55 ± 2.49 % ID/g
  blood: 0.22 ± 0.02 % ID/g
  brain: 0.06 ± 0.01 % ID/g
  heart: 0.22 ± 0.02 % ID/g
  kidney: 1.64 ± 0.15 % ID/g
  liver: 3.32 ± 0.67 % ID/g
  lung: 0.49 ± 0.03 % ID/g
  melanoma (tumor uptake): 7.56 ± 1.69 % ID/g
  muscle: 0.11 ± 0.01 % ID/g
  spleen: 0.93 ± 0.78 % ID/g
  mel/blood: 34.80 ± 10.2
  mel/liver: 2.29 ± 0.30
  mel/lung: 15.48 ± 3.91
  mel/spleen: 17.28 ± 10.2
B16F10 melanoma tumors; [1]
  melanoma (tumor uptake): 7.56 % ID/g
  mel/liver: 2.29
B16F10 melanoma tumors; 6 h postinjection
  Eyes: 8.89 ± 1.55 % ID/g
  blood: 0.12 ± 0.02 % ID/g
  brain: 0.03 ± 0.01 % ID/g
  heart: 0.10 ± 0.02 % ID/g
  kidney: 0.84 ± 0.08 % ID/g
  liver: 3.10 ± 0.31 % ID/g
  lung: 0.31 ± 0.03 % ID/g
  melanoma (tumor uptake): 5.39 ± 0.36 % ID/g
  muscle: 0.04 ± 0.01 % ID/g
  spleen: 1.19 ± 0.6 % ID/g
  mel/blood: 43.14 ± 4.9
  mel/liver: 1.71 ± 0.13
  mel/lung: 16.9 ± 1.41
  mel/spleen: 5.10 ± 2.59
B16F10 melanoma tumors; 6 h postinjection, listed as 99mTc-Z2
  melanoma (tumor uptake): 3.71 % ID/g
B16F10 melanoma tumors; over time
  tumor retention (in words): significant tumor retention

## O=C1C[S][99Tc-]23(=[O])[S]CC[N+]2(CCCN2CCOCC2)CC[N]13 (stereo not drawn) [Tc-Z3]
B16F10 melanoma tumors; 1 h postinjection
  Eyes: 4.85 ± 0.63 % ID/g
  blood: 0.35 ± 0.11 % ID/g
  brain: 0.08 ± 0.02 % ID/g
  heart: 0.49 ± 0.11 % ID/g
  kidney: 2.62 ± 1.50 % ID/g
  liver: 17.75 ± 2.56 % ID/g
  lung: 2.08 ± 0.60 % ID/g
  melanoma (tumor uptake): 2.36 ± 0.25 % ID/g
  muscle: 0.38 ± 0.11 % ID/g
  spleen: 3.19 ± 1.05 % ID/g
  mel/blood: 7.49 ± 2.79
  mel/liver: 0.14 ± 0.03
  mel/lung: 1.26 ± 0.57
  mel/spleen: 0.85 ± 0.44
B16F10 melanoma tumors; 3 h postinjection
  Eyes: 4.72 ± 0.62 % ID/g
  blood: 0.10 ± 0.02 % ID/g
  brain: 0.01 ± 0.00 % ID/g
  heart: 0.14 ± 0.02 % ID/g
  kidney: 1.02 ± 0.13 % ID/g
  liver: 12.58 ± 1.4 % ID/g
  lung: 0.87 ± 0.35 % ID/g
  melanoma (tumor uptake): 2.74 ± 0.24 % ID/g
  muscle: 0.09 ± 0.02 % ID/g
  spleen: 3.16 ± 0.46 % ID/g
  mel/blood: 26.65 ± 4.9
  mel/liver: 0.22 ± 0.03
  mel/lung: 3.24 ± 1.79
  mel/spleen: 0.87 ± 0.17

## O=C1C[S][99Tc-]23(=[O])[S]CC[N+]2(CCCN2CCCCC2)CC[N]13 (stereo not drawn) [Tc-Z4]
B16F10 melanoma tumors; 1 h postinjection
  Eyes: 6.72 ± 0.77 % ID/g
  blood: 0.33 ± 0.03 % ID/g
  brain: 0.16 ± 0.01 % ID/g
  heart: 0.59 ± 0.07 % ID/g
  kidney: 2.50 ± 0.32 % ID/g
  liver: 20.32 ± 1.0 % ID/g
  lung: 2.37 ± 0.17 % ID/g
  melanoma (tumor uptake): 3.43 ± 0.70 % ID/g
  muscle: 0.63 ± 0.17 % ID/g
  spleen: 1.37 ± 0.19 % ID/g
  mel/blood: 10.50 ± 1.9
  mel/liver: 0.17 ± 0.03
  mel/lung: 1.45 ± 0.30
  mel/spleen: 2.49 ± 0.24
B16F10 melanoma tumors; 3 h postinjection
  Eyes: 7.19 ± 1.40 % ID/g
  blood: 0.34 ± 0.09 % ID/g
  brain: 0.18 ± 0.04 % ID/g
  heart: 0.63 ± 0.07 % ID/g
  kidney: 2.73 ± 0.76 % ID/g
  liver: 16.67 ± 3.8 % ID/g
  lung: 2.36 ± 0.54 % ID/g
  melanoma (tumor uptake): 3.59 ± 1.76 % ID/g
  muscle: 0.70 ± 0.52 % ID/g
  spleen: 1.22 ± 0.42 % ID/g
  mel/blood: 9.22 ± 4.93
  mel/liver: 0.15 ± 0.09
  mel/lung: 1.30 ± 0.67
  mel/spleen: 2.57 ± 1.21
B16F10 melanoma tumors; 6 h postinjection
  Eyes: 7.01 ± 0.41 % ID/g
  blood: 0.14 ± 0.03 % ID/g
  brain: 0.02 ± 0.01 % ID/g
  heart: 0.25 ± 0.06 % ID/g
  kidney: 1.07 ± 0.17 % ID/g
  liver: 12.9 ± 1.72 % ID/g
  lung: 0.91 ± 0.24 % ID/g
  melanoma (tumor uptake): 3.52 ± 0.88 % ID/g
  muscle: 0.09 ± 0.02 % ID/g
  spleen: 0.58 ± 0.20 % ID/g
  mel/blood: 24.95 ± 4.6
  mel/liver: 0.28 ± 0.08
  mel/lung: 3.99 ± 1.10
  mel/spleen: 6.44 ± 2.12

## CCN(CC)CC[N+]12CC[S][99Tc-]13(=[O])[S]CC[N]3C(=O)C2 (stereo not drawn) [[TcOAADT]-C2—N(Et)2, [^99mTcOAADT]-(CH2)2—N(Et2), reference compound]
B16 melanoma nodules; 1 h postinjection
  blood: 1.00 ± 0.46 % ID/g
  brain: 0.30 ± 0.10 % ID/g
  heart: 0.82 ± 0.37 % ID/g
  kidney: 5.53 ± 0.81 % ID/g
  liver: 12.7 ± 1.54 % ID/g
  lung: 1.40 ± 0.49 % ID/g
  melanoma (tumor uptake): 7.62 ± 0.62 % ID/g
  muscle: 0.35 ± 0.21 % ID/g
  spleen: 1.83 ± 0.55 % ID/g
  mel/blood: 7.6 ± 0.54
  mel/liver: 0.6 ± 0.09
  mel/lung: 5.4 ± 0.60
  mel/spleen: 4.2 ± 0.58
B16 melanoma nodules; 6 h postinjection
  blood: 0.32 ± 0.19 % ID/g
  brain: 0.05 ± 0.02 % ID/g
  heart: 0.11 ± 0.02 % ID/g
  kidney: 1.98 ± 0.21 % ID/g
  liver: 4.08 ± 0.92 % ID/g
  lung: 0.47 ± 0.21 % ID/g
  melanoma (tumor uptake): 3.45 ± 1.2 % ID/g
  muscle: 0.08 ± 0.01 % ID/g
  spleen: 0.34 ± 0.10 % ID/g
  mel/blood: 10.8 ± 1.00
  mel/liver: 0.9 ± 0.35
  mel/lung: 7.3 ± 0.98
  mel/spleen: 10.1 ± 1.11
B16 melanoma nodules; over time
  tumor uptake and retention (in words): significant washout from the tumor over time
